# Measurements: publication PMC6100082, “Pyridine-Ureas as Potential Anticancer Agents: Synthesis and In Vitro Biological Evaluation” (Molecules : A Journal of Synthetic Chemistry and Natural …, 2018)
# Where two headings read alike, the source gives them in different places.
# Experiments:
# [1] = tested on: HCC-2998; test: NCI one-dose SRB assay (Colon Cancer); assay type: cell-based, human; details: for Growth Percent: HCC-2998, 1.00E-5 Molar
# Experimental: (§1) The structures of all the newly prepared pyridine-ureas 8a–n were submitted to the National Cancer Institute (NCI) Developmental Therapeutic Program. Eight compounds 8b, 8d, 8e, 8i, 8j and 8l–n were selected to be examined for their in vitro growth inhibitory activity. The anticancer assays were carried out according to the protocol of the Drug Evaluation Branch, NCI, Bethesda. The selected pyridine-ureas were tested at one dose primary anticancer assay against a panel of approximately 58 cancer lines (concentration 10^−5 M). The tested human cancer cell lines emerged from nine different cancer subtypes: leukemia, colon, melanoma, ovarian, lung, CNS, renal, breast and prostate cancers. The sulforhodamine B (SRB) protein assay was adopted to estimate the cell viability and growth. The results were reported as mean-graph of the percentage growth of the treated cells, and presented as percentage growth inhibition (GI%) caused by the test compounds (Table 2).
# (§2) The anticancer assays were performed in accordance with the protocol of the Drug Evaluation Branch, NCI, Bethesda. A 48 h drug exposure protocol was used and sulforhodamine B (SRB) protein assay was applied to estimate the cell viability and growth, as reported earlier.
# [2] = tested on: COLO 205; test: NCI one-dose SRB assay (Colon Cancer); assay type: cell-based, human; details: for Growth Percent: COLO 205, 1.00E-5 Molar
# Experimental: as §1, §2
# [3] = tested on: HCT-15; test: NCI one-dose SRB assay (Colon Cancer); assay type: cell-based, human; details: for Growth Percent: HCT-15, 1.00E-5 Molar
# Experimental: as §1, §2
# [4] = tested on: HCT-116; test: NCI one-dose SRB assay (Colon Cancer); assay type: cell-based, human; details: for Growth Percent: HCT-116, 1.00E-5 Molar
# Experimental: as §1, §2
# [5] = tested on: HT29; test: NCI one-dose SRB assay (Colon Cancer); assay type: cell-based, human; details: for Growth Percent: HT29, 1.00E-5 Molar
# Experimental: as §1, §2
# [6] = tested on: SW-620; test: NCI one-dose SRB assay (Colon Cancer); assay type: cell-based, human; details: for Growth Percent: SW-620, 1.00E-5 Molar
# Experimental: as §1, §2
# [7] = tested on: KM12; test: NCI one-dose SRB assay (Colon Cancer); assay type: cell-based, human; details: for Growth Percent: KM12, 1.00E-5 Molar
# Experimental: as §1, §2
# [8] = tested on: breast cancer MCF-7 cell line; test: In vitro anti-proliferative activity, MTT assay; assay type: cell-based, human; details: MCF-7, MTT
# Experimental: The in vitro anti-proliferative activity of the newly prepared pyridine-ureas 8a–n was examined against breast cancer MCF-7 cell line. The assay was carried out, as triplicates, utilizing the 3-(4,5-dimethylthiazol-2-yl)-2,5-diphenyltetrazolium bromide (MTT) colorimetric assay as described by T. Mosmann. Doxorubicin and Sorafenib were included in this assay as a reference drug.
# MCF-7 (human breast cancer cell line) and WI-38 (human lung fibroblast cell line), were obtained from American Type Culture Collection (Manassas, VA, USA). The cells were propagated in DMEM and supplemented with 10% heat-inactivated FBS (Hyclone), 10 μg/mL of insulin (Manufacturer, Sigma, St. Louis, MO, USA), and 1% penicillin-streptomycin. MTT assay was utilized to examine the in vitro anti-proliferative activity of the newly prepared ureas following the reported procedures. […] The data presented are the mean of at least three separate experiments.
# [9] = tested on: MDA-MB-468; test: NCI one-dose SRB assay (Breast Cancer); assay type: cell-based, human; details: for Growth Percent: MDA-MB-468, 1.00E-5 Molar
# Experimental: as §1, §2
# [10] = tested on: MCF7; test: NCI one-dose SRB assay (Breast Cancer); assay type: cell-based, human; details: for Growth Percent: MCF7, 1.00E-5 Molar
# Experimental: as §1, §2
# [11] = tested on: HS 578T; test: NCI one-dose SRB assay (Breast Cancer); assay type: cell-based, human; details: for Growth Percent: 1.00E-5 Molar
# Experimental: as §1, §2
# [12] = tested on: MDA-MB-231; test: NCI one-dose SRB assay (Breast Cancer); assay type: cell-based, human; details: for Growth Percent: MDA-MB-231/ATCC, 1.00E-5 Molar
# Experimental: as §1, §2
# [13] = tested on: T-47D; test: NCI one-dose SRB assay (Breast Cancer); assay type: cell-based, human; details: for Growth Percent: 1.00E-5 Molar
# Experimental: as §1, §2
# [14] = tested on: BT-549; test: NCI one-dose SRB assay (Breast Cancer); assay type: cell-based, human; details: for Growth Percent: BT-549, 1.00E-5 Molar
# Experimental: as §1, §2
# [15] = tested on: SK-MEL-28; test: NCI one-dose SRB assay (Melanoma); assay type: cell-based, human; details: for Growth Percent: SK-MEL-28, 1.00E-5 Molar
# Experimental: as §1, §2
# [16] = tested on: SK-MEL-5; test: NCI one-dose SRB assay (Melanoma); assay type: cell-based, human; details: for Growth Percent: SK-MEL-5, 1.00E-5 Molar
# Experimental: as §1, §2
# [17] = tested on: MDA-MB-435; test: NCI one-dose SRB assay (Melanoma); assay type: cell-based, human; details: for Growth Percent: MDA-MB-435, 1.00E-5 Molar
# Experimental: as §1, §2
# [18] = tested on: MALME-3M; test: NCI one-dose SRB assay (Melanoma); assay type: cell-based, human; details: for Growth Percent: 1.00E-5 Molar
# Experimental: as §1, §2
# [19] = tested on: UACC-257; test: NCI one-dose SRB assay (Melanoma); assay type: cell-based, human; details: for Growth Percent: UACC-257, 1.00E-5 Molar
# Experimental: as §1, §2
# [20] = tested on: UACC-62; test: NCI one-dose SRB assay (Melanoma); assay type: cell-based, human; details: for Growth Percent: UACC-62, 1.00E-5 Molar
# Experimental: as §1, §2
# [21] = tested on: SK-MEL-2; test: NCI one-dose SRB assay (Melanoma); assay type: cell-based, human; details: for Growth Percent: SK-MEL-2, 1.00E-5 Molar
# Experimental: as §1, §2
# [22] = tested on: M14; test: NCI one-dose SRB assay (Melanoma); assay type: cell-based, human; details: for Growth Percent: M14, 1.00E-5 Molar
# Experimental: as §1, §2
# [23] = tested on: LOX IMVI; test: NCI one-dose SRB assay (Melanoma); assay type: cell-based, human; details: for Growth Percent: 1.00E-5 Molar
# Experimental: as §1, §2
# [24] = Homo sapiens, 10 μM, read-out: Percentage growth inhibition (GI%)
compound,measurement,setting,value
"1-(4-Chloro-4-(trifluoromethyl)cyclohexa-2,5-dien-1-yl)-3-(6-(3,4-dimethoxyphenyl)-2-methylpyridin-3-yl)urea [Compound 8l]",Percentage growth inhibition (GI%),"[1]; HCC-2998, 10 μM",- (Only GI% higher than 10% are shown)
same,Growth Percent,[1],93.63%
same,Percentage growth inhibition (GI%),"[2]; COLO 205, 10 μM",- (Only GI% higher than 10% are shown)
same,Growth Percent,[2],93.52%
same,Percentage growth inhibition (GI%),"[3]; HCT-15, 10 μM",51%
same,Growth Percent,[3],49.62%
same,Percentage growth inhibition (GI%),"[4]; HCT-116, 10 μM",55%
same,Growth Percent,[4],45.30%
same,Percentage growth inhibition (GI%),"[5]; HT29, 10 μM",44%
same,Growth Percent,[5],56.20%
same,Percentage growth inhibition (GI%),"[6]; SW-620, 10 μM",10%
same,Growth Percent,[6],90.92%
same,Percentage growth inhibition (GI%),"[7]; KM12, 10 μM",30%
same,Growth Percent,[7],70.44%
same,IC50,"[8]; 48 h of incubation, read-out: IC50 48 h",7.03 ± 0.61 µM
same,IC50,"[8]; 72 h of incubation, read-out: IC50 72 h",21.4 ± 2.03 µM
same,Percentage growth inhibition (GI%),"[9]; MDA-MB-468, 10 μM",52%
same,Growth Percent,[9],48.57%
same,Percentage growth inhibition (GI%),"[10]; MCF7, 10 μM",42%
same,Growth Percent,[10],58.28%
same,Percentage growth inhibition (GI%),[11]; 10 μM,19%
same,Growth Percent,[11],81.01%
same,Percentage growth inhibition (GI%),"[12]; MDA-MB-231, 10 μM",12%
same,Growth Percent,[12],88.41%
same,Percentage growth inhibition (GI%),[13]; 10 μM,51%
same,Growth Percent,[13],49.20%
same,Percentage growth inhibition (GI%),"[14]; BT-549, 10 μM",12%
same,Growth Percent,[14],88.97%
same,Percentage growth inhibition (GI%),"[15]; SK-MEL-28, 10 μM",27%
same,Growth Percent,[15],73.58%
same,Percentage growth inhibition (GI%),"[16]; SK-MEL-5, 10 μM",37%
same,Growth Percent,[16],63.85%
same,Percentage growth inhibition (GI%),"[17]; MDA-MB-435, 10 μM",23%
same,Growth Percent,[17],77.84%
same,Percentage growth inhibition (GI%),[18]; 10 μM,10%
same,Growth Percent,[18],90.89%
same,Percentage growth inhibition (GI%),"[19]; UACC-257, 10 μM",44%
same,Growth Percent,[19],56.26%
same,Percentage growth inhibition (GI%),"[20]; UACC-62, 10 μM",23%
same,Growth Percent,[20],77.31%
same,Percentage growth inhibition (GI%),"[21]; SK-MEL-2, 10 μM",13%
same,Growth Percent,[21],87.87%
same,Percentage growth inhibition (GI%),"[22]; M14, 10 μM",53%
same,Growth Percent,[22],47.02%
same,Percentage growth inhibition (GI%),[23]; 10 μM,22%
same,Growth Percent,[23],78.57%
"COc1ccc(-c2ccc(NC(=O)Nc3cccc(C(F)(F)F)c3)c(C)n2)cc1 [Compound 8b, 1-(6-(4-Methoxyphenyl)-2-methylpyridin-3-yl)-3-(3-(trifluoromethyl)phenyl) Urea]",Growth Percent,[1],81.09%
same,inhibition at 10 µM,"[1]; Homo sapiens, HCC-2998, 10 μM, read-out: Percentage growth inhibition (GI%)",19%
same,Growth Percent,[2],84.52%
same,inhibition at 10 µM,"[2]; Homo sapiens, COLO 205, 10 μM, read-out: Percentage growth inhibition (GI%)",16%
same,Growth Percent,[3],40.87%
same,inhibition at 10 µM,"[3]; Homo sapiens, HCT-15, 10 μM, read-out: Percentage growth inhibition (GI%)",60%
same,Growth Percent,[4],26.93%
same,inhibition at 10 µM,"[4]; Homo sapiens, HCT-116, 10 μM, read-out: Percentage growth inhibition (GI%)",74%
same,Growth Percent,[5],47.65%
same,inhibition at 10 µM,"[5]; Homo sapiens, HT-29, HT29, 10 μM, read-out: Percentage growth inhibition (GI%)",53%
same,inhibition at 10 µM,"[6]; Homo sapiens, SW-620, 10 μM, read-out: Percentage growth inhibition (GI%)",19%
same,Growth Percent,[6],81.01%
same,inhibition at 10 µM,"[7]; Homo sapiens, KM12, 10 μM, read-out: Percentage growth inhibition (GI%)",55%
same,Growth Percent,[7],45.61%
same,melting point,,189 to 191 °C
same,IC50,"[8]; Homo sapiens, MCF7, 48 h, 48 h of incubation, read-out: IC50 48 h",5.66 ± 0.45 µM
same,IC50,"[8]; Homo sapiens, MCF7, 72 h, 72 h of incubation, read-out: IC50 72 h",5.03 ± 0.29 µM
same,inhibition at 10 µM,"[9]; Homo sapiens, MDA-MB-468, 10 μM, read-out: Percentage growth inhibition (GI%)",73%
same,Growth Percent,[9],27.53%
same,inhibition at 10 µM,"[10]; Homo sapiens, MCF7, 10 μM, read-out: Percentage growth inhibition (GI%)",59%
same,Growth Percent,[10],41.47%
same,Growth Percent,[11],88.85%
same,inhibition at 10 µM,[11]; [24],12%
same,inhibition at 10 µM,"[12]; Homo sapiens, MDA-MB-231, 10 μM, read-out: Percentage growth inhibition (GI%)",32%
same,Growth Percent,[12],68.55%
same,Growth Percent,[13],26.51%
same,inhibition at 10 µM,"[13]; Homo sapiens, T47D, 10 μM, read-out: Percentage growth inhibition (GI%)",74%
same,Growth Percent,[14],66.40%
same,inhibition at 10 µM,"[14]; Homo sapiens, BT-549, 10 μM, read-out: Percentage growth inhibition (GI%)",34%
same,inhibition at 10 µM,"[15]; Homo sapiens, SK-MEL-28, 10 μM, read-out: Percentage growth inhibition (GI%)",31%
same,Growth Percent,[15],69.29%
same,inhibition at 10 µM,"[16]; Homo sapiens, SK-MEL-5, 10 μM, read-out: Percentage growth inhibition (GI%)",59%
same,Growth Percent,[16],41.63%
same,inhibition at 10 µM,"[17]; Homo sapiens, MDA-MB-435, 10 μM, read-out: Percentage growth inhibition (GI%)",31%
same,Growth Percent,[17],69.59%
same,Growth Percent,[18],90.58%
same,inhibition at 10 µM,[18]; [24],10%
same,inhibition at 10 µM,"[19]; Homo sapiens, UACC-257, 10 μM, read-out: Percentage growth inhibition (GI%)",39%
same,Growth Percent,[19],61.43%
same,inhibition at 10 µM,"[20]; Homo sapiens, UACC-62, 10 μM, read-out: Percentage growth inhibition (GI%)",37%
same,Growth Percent,[20],63.91%
same,inhibition at 10 µM,"[21]; Homo sapiens, SK-MEL-2, 10 μM, read-out: Percentage growth inhibition (GI%)",25%
same,Growth Percent,[21],75.95%
same,inhibition at 10 µM,"[22]; Homo sapiens, M14, 10 μM, read-out: Percentage growth inhibition (GI%)",63%
same,Growth Percent,[22],37.25%
same,Growth Percent,[23],47.72%
same,inhibition at 10 µM,[23]; [24],53%
